Test results as given in the supplement of paper PMC10307832.

Tests used:
Experiment in all cases: relative viability (nuclei count vs DMSO), 5 days (fraction); higher = more cells survive
[1] = compound: COc1cccc2c1C(=O)c1c(O)c3c(c(O)c1C2=O)C[C@@](O)(C(=O)CO)C[C@@H]3O[C@H]1C[C@H](N)[C@H](O)[C@H](C)O1 [Doxorubicin] + Nc1ncn([C@H]2C[C@H](O)[C@@H](CO)O2)c(=O)n1 [Decitabine] (partner 2 µM)
Procedure, shortened: (§1)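 One day after seeding in 1536-well plates, lung cancer cell lines were dosed by pin tool. Dosing was either single-drug or a fixed anchor-drug dose plus five library-drug doses (not always all listed) in √10 steps. After 5 days, nuclei were stained in one fix-and-stain step and counted on 4× images, and relative viability is the nuclei count of treated wells over that of vehicle wells, given as the median of duplicate plates.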

[2] = compound: COc1cccc2c1C(=O)c1c(O)c3c(c(O)c1C2=O)C[C@@](O)(C(=O)CO)C[C@@H]3O[C@H]1C[C@H](N)[C@H](O)[C@H](C)O1 [Doxorubicin] + CC(C)C[C@H](NC(=O)[C@H](Cc1ccccc1)NC(=O)c1cnccn1)B(O)O [Bortezomib] (partner 0.002 µM)
Procedure, shortened: as §1

[3] = compound: COc1cccc2c1C(=O)c1c(O)c3c(c(O)c1C2=O)C[C@@](O)(C(=O)CO)C[C@@H]3O[C@H]1C[C@H](N)[C@H](O)[C@H](C)O1 [Doxorubicin] + O=C(c1cc(Cc2n[nH]c(=O)c3ccccc23)ccc1F)N1CCN(C(=O)C2CC2)CC1 [Olaparib] (partner 8 µM)
Procedure, shortened: as §1

[4] = compound: COc1cccc2c1C(=O)c1c(O)c3c(c(O)c1C2=O)C[C@@](O)(C(=O)CO)C[C@@H]3O[C@H]1C[C@H](N)[C@H](O)[C@H](C)O1 [Doxorubicin] + C[C@@H](Oc1cc(-c2cnn(C3CCNCC3)c2)cnc1N)c1c(Cl)ccc(F)c1Cl [Crizotinib] (partner 1 µM)
Procedure, shortened: as §1

## UMC-11
[1]; first compound 0.001 µM
  relative viability: 0.641
[1]; first compound 0.003162 µM
  relative viability: 0.497
[1]; first compound 0.01 µM
  relative viability: 0.619
[1]; first compound 0.03162 µM
  relative viability: 0.385
[1]; first compound 0.1 µM
  relative viability: 0.41
[2]; first compound 0.001 µM
  relative viability: 0.667
[2]; first compound 0.003162 µM
  relative viability: 0.543
[2]; first compound 0.01 µM
  relative viability: 0.668
[2]; first compound 0.03162 µM
  relative viability: 0.379
[2]; first compound 0.1 µM
  relative viability: 0.436
[3]; first compound 0.001 µM
  relative viability: 0.38
[3]; first compound 0.003162 µM
  relative viability: 0.401
[3]; first compound 0.01 µM
  relative viability: 0.322
[3]; first compound 0.03162 µM
  relative viability: 0.302
[3]; first compound 0.1 µM
  relative viability: 0.275
[4]; first compound 0.001 µM
  relative viability: 0.539
[4]; first compound 0.003162 µM
  relative viability: 0.66
[4]; first compound 0.01 µM
  relative viability: 0.648
[4]; first compound 0.03162 µM
  relative viability: 0.309
[4]; first compound 0.1 µM
  relative viability: 0.386
